Laboratory results taken from patent US8853276B2, “Guanidine derivatives in cinnamic series” (Produits Chimiques Auxiliaires et de Synthese, priority 2010, dated 2014).

Test system: fibrillin-1
Assay: Anti-glycation study on skin explants: fibrillin-1 immunolabeling with image analysis
Assay type: cell-based, human
Conditions: for Fibrillin-1 (% of surface area under the dermo-epidermal junction), Mean: topical 2 mg per explant on D0, D3, D5, D7, aminoguanidine at 0.15%, compound 29 at 1%
Experimental: The anti-aging properties of a derivative according to the invention were evaluated by performing a comparative study of the anti-glycation activity of several compounds.
From an arm of a person, 21 explants (about 10 mm in diameter) were prepared and placed under survival conditions in BEM specific medium (BIO-EC's Explants Medium).
The explants were divided into seven batches of three explants:
Methylglyoxal was incorporated into the survival medium on D3, D5 and D7.
Compound 29 and the reference, aminoguanidine, were applied topically at a rate of 2 mg per explant on D0, D3, D5 and D7.
The controls (batches T0 and T) received no treatment.
On D0, the three explants of batch T0 were sampled and divided into two. One half was fixed with buffered formaldehyde and the other half was frozen at −80° C. On D9, three explants from each batch were sampled and treated in the same manner.
After 24 hours of fixing in the buffered formaldehyde, the samples were dehydrated and impregnated with paraffin using a Leica 1020 dehydration robot. They were embedded using a Leica EG 1160 coating station. 5 μm slices were produced using a Minot Leica RM 2125 microtome and bonded to Superfrost® histological glass slides.
The nuclei were stained with propidium iodide. The labeling was quantified by image analysis measurements with the Q-WIN Leica system.

[1] = D9 with methylglyoxal (in survival medium D3, D5, D7)
[2] = D9 with methylglyoxal, relative to the control batch T without methylglyoxal

Structure (SMILES) | Fibrillin-1 (% of surface area under the dermo-epidermal junction), Mean [1] | increase in the percentage of surface area occupied by fibrillin-1 under the dermo-epidermal junction [2] | Fibrillin-1 (% of surface area under the dermo-epidermal junction), Mean (D9 without methylglyoxal) | reduction of the methylglyoxal-induced decrease in the expression of fibrillin-1 (D9, treatment in the presence of methylglyoxal) | expression of fibrillin-1 (labeling, observation) (D9 in the presence of methylglyoxal, compared with control batch T MG) | decrease in the percentage of surface area occupied by fibrillin-1 under the dermo-epidermal junction [2]
COc1cc(/C=C/C(=O)NNC(=N)N)ccc1O [Compound 29, imino{2-[(2E)-3-(4-hydroxy-3-methoxyphenyl)prop-2-enoyl]hydrazino}methanaminium nitrate] | 27.7% | 17% | 21.53% |  |  | 
N=C(N)NN [aminoguanidine, Aminoguanidine] | 21.0% |  | 28.3% | 49% | very sharp and greater than that observed on the control batch T MG with methylglyoxal | 12%
CC(=O)C=O [methylglyoxal, Methylglyoxal] |  |  |  |  |  | 23%
